Test results: patent publication US9133266B2, “Vitronectin-derived cell culture substrate and uses thereof” (Wisconsin Alumni Research Foundation, priority 2011, dated 2015)

Assays:
[1] = tested on: H1 ES cells; test: Media component test: survival and proliferation of dissociated ES cells; format: cell-based, human; settings: for requirement for short-term survival (24 hours) and proliferation (82 hours) of human ES cells: factor removed from TeSR, FIG. 6A; for initial survival of human ES cells: added to defined medium, FIG. 6F; for cell survival and proliferation: FIG. 4A-B
Experimental: (§1) (A) Dissociated H1 ES cells were plated into different media (Table 1) on […]-coated plates, and cell survival was measured 24 hours after plating. […] (B) The same ES cells from FIG. […] (C) Dissociated cells were plated in three different media, and initial survival was measured 22 hours after plating (blue column) Proliferation was measured 129 hours after plating (red column) The three media were TESR™, TESR without L-ascorbic acid (TESR-LAA) and a simplified medium containing DMEM/F 12, NaHCO3 LAA, insulin and FGF2 (*p<0.05, n=3). (D) H1 cells were maintained in defined media (DMEM/F12, NaHCO3, Insulin, FGF2 and LAA) for multiple passages with or without selenium. 150,000 starting cells were seeded in each passage on day 0, 4 and 7. (E) Human H1 cells were grown in DMEM/F12, NaHCO3, Insulin, FGF2, LAA and selenium with or without NODAL for four passages, and OCT4 expression was analyzed by FACS. Green peak: anti-OCT4 primary antibody with Alexa-488 secondary antibody; unshaded peak: mouse IgG control. (F) Transferrin was tested with cloning assay in defined media (DMEM/F12, NaHCO3, Insulin, FGF2, LAA, and Selenium); human foreskin iPS cells (Yu et al., Science 318:1917-1920 (2007)) were used in this particular experiment with ROCK inhibitor HA100 (10 μM) in hypoxic conditions (*p<0.05, n=3). […] (G) E8 medium (Table 1), TESR™ and conditioned medium (CM) were tested by cloning assay with HA100 (*p<0.05, n=3). Hypoxia conditions (5% O2 and 10% CO2, red column) and normoxic conditions (5% CO2, blue column) were used in the test (*p<0.05, n=3). […] (H) E8 medium and TESR™ were used to culture ES and iPS cells for long-term expansion, and the proliferation dynamics was recorded in the first seven passages. 200,000 H1 and human foreskin iPS cells (Yu et al., Science 324:797-801 (2009)) were plated in each passage in E8 and TESR™ media in hypoxic conditions.
H1 cells were maintained in specific media for 5 days (2 passages), and RNA was purified for qRT-PCR to detect NANOG expression relative to GAPDH. […] A variety of basic media were used to make growth media with additional components (insulin, FGF2, LAA, Selenium, and NaHCO3). Dissociated H1 cells were plated in different media on […]-coated plates. […] Green peak: OCT4 antibody with Alexa-488 conjugated secondary antibody; Grey peak: mouse IgG control. […] Cells were treated with HA100 (10 μM) and Y27632) (10 μM) for 24 hours, and with blebbistatin (10 μM) for 4 hours (*p<0.05, n=3).

[2] = tested on: H1 cells; test: Cloning assay; format: cell-based, human
Experimental: To determine how the various vitronectin variants affect cloning efficiency, the vitronectin polypeptide variants were tested in a cloning assay, essentially as described by Chen et al, Cell Stem Cell 7:240-248 (2010), incorporated herein by reference as if set forth in its entirety. Briefly, triplicates for each substrate were prepared in a 12-well plate. Prior to the addition of cells, 500 μL medium was added to each well. Cells were detached from their culture plate and dissociated with TrypLE for 5 minutes or until fully detached. TrypLE was neutralized with equal volumes of basic media, and the cells were counted, washed and then diluted to 5000 cells/mL. 100 μL of this cell suspension (500 cells) was added to each well. Plates were then incubated at 37° C., 5% O2 and 10% CO2 and the medium was changed every 1-2 day(s). After 5-6 days, colonies were stained with an APS kit (Vector Lab) following the manufacturer's instruction and counted.

[3] = tested on: human ES and iPS cells; test: Long-term expansion of ES and iPS cells in defined medium; format: cell-based; settings: for long-term culture stability of human ES and iPS cells: NODAL 100 ng/ml or TGFβ 2 ng/ml added to simple medium
Experimental: as §1, with “FIG. 5A were cultured in the same media with daily media change, and proliferation was measured 96 hours after plating.” for “FIG.”

[4] = tested on: NANOG expression in H1 cells; test: NANOG expression by qRT-PCR relative to GAPDH; format: cell-based, human; settings: NODAL 100 ng/ml or TGFβ 2 ng/ml in defined media; FIG. 6B
Experimental: FIG. 6 illustrates media components supporting human pluripotent stem cells. […] When those factors were removed, H1 ES cells survived (24 hours, blue columns) and proliferated (82 hours, red columns) as well as in TeSR. […] H1 cells were maintained in specific media for 5 days (2 passages), and RNA was purified for qRT-PCR to detect NANOG expression relative to GAPDH. (C) DMEM/F12 basic media is among the best basic media in the screen that supports human ES cell survival and proliferation. A variety of basic media were used to make growth media with additional components (insulin, FGF2, LAA, Selenium, and NaHCO3). Dissociated H1 cells were plated in different media on MATRIGEL-coated plates. Cell survival was measured at 24 hours (blue column) and cell proliferation at 52 hours (red column) (D) Defined media (DMEM/F12, insulin, FGF2, LAA, and Selenium) with NODAL supports pluripotency of human iPS cells. Flow cytometry detected high expression of pluripotency marker OCT4 in two iPS cell lines. Green peak: OCT4 antibody with Alexa-488 conjugated secondary antibody; Grey peak: mouse IgG control. Similar results were also obtained from H1 and H9 ES cells maintained in the same media. (E) Normal karyotypes were maintained after long-term passage for those iPS cells shown above. […] High OCT4 expression was detected in H1 and iPS cells. […]

[5] = tested on: human foreskin iPS cells; test: Cloning assay in defined media with transferrin; format: cell-based; settings: defined media with HA100 (10 μM), hypoxic conditions; FIG. 4F
Experimental: FIG. 4 presents media components supporting human ES cell survival and proliferation. (A) Dissociated H1 ES cells were plated into different media (Table 1) on MATRIGEL-coated plates, and cell survival was measured 24 hours after plating. […] (B) The same ES cells from FIG. 5A were cultured in the same media with daily media change, and proliferation was measured 96 hours after plating. […] (C) Dissociated cells were plated in three different media, and initial survival was measured 22 hours after plating (blue column) Proliferation was measured 129 hours after plating (red column) The three media were […] without L-ascorbic acid (TESR-LAA) and a simplified medium containing DMEM/F 12, NaHCO3 LAA, insulin and FGF2 (*p<0.05, n=3). (D) H1 cells were maintained in defined media (DMEM/F12, NaHCO3, Insulin, FGF2 and LAA) for multiple passages with or without selenium. 150,000 starting cells were seeded in each passage on day 0, 4 and 7. (E) Human H1 cells were grown in DMEM/F12, NaHCO3, Insulin, FGF2, LAA and selenium with or without NODAL for four passages, and OCT4 expression was analyzed by FACS. Green peak: anti-OCT4 primary antibody with Alexa-488 secondary antibody; unshaded peak: mouse IgG control. […] (H) E8 medium and […] were used to culture ES and iPS cells for long-term expansion, and the proliferation dynamics was recorded in the first seven passages. […]

[6] = added to defined medium, FIG. 6G
[7] = TESR components in absence of BSA and BME

Molecule: NCCCC(=O)O [GABA]
- requirement for short-term survival (24 hours) and proliferation (82 hours) of human ES cells [1]: not required for short-term survival and proliferation

Molecule: O=S(=O)(c1cccc2cnccc12)N1CCNCC1 [HA100, reference compound]
- cell survival after dissociation ([1]; 10 μM, TeSR, p<0.05, n=3): improved cell survival after dissociation
- initial survival of human ES cells [1]: improved initial survival
- cloning efficiency ([2]; E8 media, 10 μM for 24 hours, p<0.05, n=3): improved cloning efficiency as efficiently as Y27632 and blebbistatin
- cloning efficiency [2, 6]: supported a high cloning efficiency

Molecule: O=C1O[C@H]([C@@H](O)CO)C(O)=C1O [L-ascorbic acid]
- ES cell proliferation ([1]; TESR components in absence of BSA and BME, FIG. 4C): promoted ES cell proliferation

Molecule: [Cl-].[Li+] [LiCl]
- requirement for short-term survival (24 hours) and proliferation (82 hours) of human ES cells [1]: not required for short-term survival and proliferation

Molecule: O=C(O)C1CCCCN1 (stereo not drawn) [Pipecolic acid]
- requirement for short-term survival (24 hours) and proliferation (82 hours) of human ES cells [1]: not required for short-term survival and proliferation

Molecule: C[C@@H](N)[C@H]1CC[C@H](C(=O)Nc2ccncc2)CC1 [Y27632, reference compound]
- initial survival of human ES cells [1]: improved initial survival
- cloning efficiency [2, 6]: supported a high cloning efficiency

Molecule: Cc1ccc2c(c1)C(=O)C1(O)CCN(c3ccccc3)C1=N2 (stereo not drawn) [blebbistatin, reference compound]
- initial survival of human ES cells [1]: improved initial survival
- cloning efficiency [2, 6]: supported a high cloning efficiency

Molecule: [Se] [selenium]
- long-term sustained growth ([3]; defined media, multiple passages, FIG. 4D): necessary for long-term sustained growth

Molecule: FGF2: growth factor medium component
- cell survival and proliferation [1, 7]: remained important for cell survival and proliferation

Molecule: Insulin: medium component
- cell survival and proliferation [1, 7]: remained important for cell survival and proliferation

Molecule: TGFβ
- requirement for short-term survival (24 hours) and proliferation (82 hours) of human ES cells [1]: not required for short-term survival and proliferation
- long-term culture stability of human ES and iPS cells [3]: consistent long-term culture stability
- NANOG expression levels [4]: increased NANOG expression levels

Molecule: transferrin: protein medium component of E8
- cloning efficiency on addition of transferrin [5]: further increased

B1: NODAL: growth factor medium component, 100 ng/mL, interchangeable with TGFβ in E8 media (protein, UniProt Q96S42 238-347, looked up)
Nodal homolog: HHLPDRSQLCRKVKFQVDFNLIGWGSWIIYPKQYNAYRCEGECPNPVGEEFHPTNHAYIQSLLKRYQPHRVPSTCCAPVKTKPLSMLYVDNGRVLLDHHKDMIVEECGCL
- long-term culture stability of human ES and iPS cells [3]: consistent long-term culture stability
- NANOG expression levels [4]: increased NANOG expression levels
